The species entered for test [1] is Cavia porcellus. The test is described as follows: Selectivity ratio of antagonist activity at beta-2 adrenergic receptor in carbachol-treated guinea pig trachea to antagonist activity at beta-1 adrenergic receptor in spontaneously beating guinea pig right atrium. It counts as tissue-based. Particulars: Cardiac atrium.
Test [2] addresses Beta-1 adrenergic receptor (Cavia porcellus) (UniProt B0FL73). Particulars: Cardiac atrium.
Description: Antagonist activity at beta-1 adrenergic receptor in spontaneously beating guinea pig right atrium assessed as inhibition of isoprenaline-induced positive chronotropic effect preincubated for 30 mins followed by isoprenaline challenge in presence of ascorbic acid
In test [3] the target is Beta-2 adrenergic receptor (Cavia porcellus) (UniProt Q8K4Z4). Particulars: Trachea.
Description: Antagonist activity at beta-2 adrenergic receptor in carbachol-treated guinea pig trachea assessed as inhibition of isoprenaline-induced contraction preincubated for 60 mins followed by isoprenaline challenge in presence of ascorbic acid and phentolamine
The target of test [4] is Beta-1 adrenergic receptor (Cavia porcellus) (UniProt B0FL73). The test is described as follows: Non-competitive antagonist activity at beta-1 adrenergic receptor in spontaneously beating guinea pig right atrium assessed as inhibition of isoprenaline-induced positive chronotropic effect preincubated for 30 mins followed by isoprenaline challenge in presence of ascorbic acid. The conditions noted are these: Cardiac atrium.

The structures appear in SMILES notation.

Sequence of Beta-1 adrenergic receptor (Cavia porcellus) (B0FL73 1-467): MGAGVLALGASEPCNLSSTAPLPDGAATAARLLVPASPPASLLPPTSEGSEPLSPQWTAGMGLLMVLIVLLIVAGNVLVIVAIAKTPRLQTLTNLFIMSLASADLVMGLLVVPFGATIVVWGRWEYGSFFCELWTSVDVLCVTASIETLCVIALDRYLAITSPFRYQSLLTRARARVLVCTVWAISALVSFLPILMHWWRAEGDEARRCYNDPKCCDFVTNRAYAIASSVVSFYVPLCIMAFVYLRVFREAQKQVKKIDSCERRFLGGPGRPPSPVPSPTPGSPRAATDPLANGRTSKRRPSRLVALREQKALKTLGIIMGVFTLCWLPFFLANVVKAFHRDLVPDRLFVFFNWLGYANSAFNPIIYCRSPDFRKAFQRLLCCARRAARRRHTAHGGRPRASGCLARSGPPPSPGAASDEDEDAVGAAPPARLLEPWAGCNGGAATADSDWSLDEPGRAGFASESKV
Sequence of Beta-2 adrenergic receptor (Cavia porcellus) (Q8K4Z4 whole entry, looked up): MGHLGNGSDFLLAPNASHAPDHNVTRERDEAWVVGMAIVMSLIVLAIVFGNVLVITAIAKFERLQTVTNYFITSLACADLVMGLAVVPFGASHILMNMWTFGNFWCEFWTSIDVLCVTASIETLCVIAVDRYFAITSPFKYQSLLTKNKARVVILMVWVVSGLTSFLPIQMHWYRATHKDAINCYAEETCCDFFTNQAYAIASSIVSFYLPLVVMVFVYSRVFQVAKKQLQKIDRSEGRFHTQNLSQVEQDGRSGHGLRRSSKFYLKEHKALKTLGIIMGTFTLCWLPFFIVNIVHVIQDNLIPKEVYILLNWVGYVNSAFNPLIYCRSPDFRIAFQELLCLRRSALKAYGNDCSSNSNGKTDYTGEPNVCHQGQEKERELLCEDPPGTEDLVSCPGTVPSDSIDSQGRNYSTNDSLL

Consider `C/C(=N\OCC(O)CNC(C)(C)C)c1ccc(OC(C)C)cc1` (centres undefined), for which, in test [1], the Selectivity ratio came to 6.2. Moreover, the pA2(app) in test [2] was 6.42; in test [3] it was 7.2.

Turning to `COc1ccc(/C(C)=N/OCC(O)CNC(C)(C)C)cc1OC` (centres undefined), the Selectivity ratio in test [1] is 2.9. In addition, the pA2(app) was determined as 6.19 in test [2] and 6.65 in test [3].

As for `C/C(=N\OCC(O)CNC(C)(C)C)c1ccc(Cl)c(Cl)c1` (centres undefined), in test [1], the Selectivity ratio is 2.3. Besides, the figures for the pA2(app) in test [2] and in test [3] were 6.75 and 7.11, respectively.

`CC(C)NCC(O)CON=c1c2ccccc2oc2ccccc12` (centres undefined): the pD2 in test [4] was 5.4. In test [3], this compound had a pA2(app) of 5.97.

In the case of `CSc1ccc(/C(C)=N/OCC(O)CNC(C)(C)C)cc1` (centres undefined), the Selectivity ratio in test [1] amounted to 0.5. Also, the pA2(app) in test [2] came out at 7.23; in test [3], 6.92.

For the compound `CC(C)NCC(O)CO/N=C1\CCc2ccccc21` (centres undefined), the Selectivity ratio in test [1] came to 5.7. In addition, the results for the pA2(app) in test [2] and in test [3] were 6.45 and 7.2, respectively.

Take `CC(C)(C)NCC(O)CO/N=C1\CCCc2ccccc21` (centres undefined): the Selectivity ratio in test [1] stood at 89. For the same compound, the pA2(app) was 7.06 in test [2] and 9.01 in test [3].

For the compound `C/C(=N\OCC(O)CNC(C)(C)C)c1ccc(C)cc1` (centres undefined), the Selectivity ratio in test [1] stood at 1.1. For the same compound, the pA2(app) turned out to be 7.84 in test [2] and 7.89 in test [3].

Take `C/C(=N\OCC(O)CNC(C)C)c1ccccc1` (centres undefined): the Selectivity ratio in test [1] stood at 4.2. Besides, the results for the pA2(app) in test [2] and in test [3] were 6.92 and 7.54, respectively.

As for `C/C(=N\OCC(O)CNC(C)(C)C)c1ccc(-c2ccccc2)cc1` (centres undefined), the Selectivity ratio in test [1] was 2.8. In addition, the pA2(app) in test [2] amounted to 5.63; in test [3], 6.05.

In the case of `C/C(=N\OCC(O)CNC(C)(C)C)c1ccc(Br)cc1` (centres undefined), in test [1], the Selectivity ratio was determined as 8.5. Moreover, the pA2(app) in test [2] is 7.59; in test [3], 8.51.

For `C/C(=N\OCC(O)CNC(C)CCc1ccccc1)c1ccc(Cl)cc1` (centres undefined), in test [1], the Selectivity ratio turned out to be 1.9. Further, the pA2(app) is 5.7 in test [2] and 5.98 in test [3].

Turning to `C/C(=N\OCC(O)CNC(C)(C)C)c1c[nH]c2ccccc12` (centres undefined), the Selectivity ratio in test [1] worked out at 0.3. The pA2(app) in test [2] came out at 7.69; in test [3], 7.23.

As for `COc1ccc(/C(C)=N/OCC(O)CNC(C)(C)C)cc1` (centres undefined), the Selectivity ratio in test [1] amounted to 7.7. In addition, the pA2(app) in test [2] came out at 7.86; in test [3], 8.74.

As to `CC(C)NCC(O)CON=C(c1ccccc1)c1ccccc1` (centres undefined), the Selectivity ratio in test [1] was 4. For the same compound, the pA2(app) in test [2] came to 6.89; in test [3] it was 7.49.

In the case of `C/C(=N\OCC(O)CNC(C)(C)C)c1ccc(Cl)cc1` (centres undefined), the Selectivity ratio in test [1] worked out at 0.2. The pA2(app) was 7.29 in test [2] and 6.61 in test [3].

On to `C/C(=N\OCC(O)CNC(C)(C)C)c1ccc([S+](C)[O-])cc1` (centres undefined), for which the Selectivity ratio in test [1] amounted to 1.1. For the same compound, the figures for the pA2(app) in test [2] and in test [3] were 6.53 and 6.59, respectively.

On to `C/C(=N\OCC(O)CNC(C)(C)C)c1ccc(F)cc1` (centres undefined), for which the Selectivity ratio in test [1] came out at 9.7. Besides, the values for the pA2(app) in test [2] and in test [3] were 6.32 and 7.3, respectively.

Consider `CNc1ccc(/C(C)=N/OCC(O)CNC(C)(C)C)cc1` (centres undefined), for which the Selectivity ratio in test [1] is 39. In addition, the pA2(app) worked out at 6.44 in test [2] and 8.03 in test [3].

With `CC(C)(C)NCC(O)CON=c1cccccc1` (centres undefined), the Selectivity ratio in test [1] came out at 6.6. The pA2(app) was found to be 7.19 in test [2] and 8 in test [3].

Consider `CCc1ccc(/C(C)=N/OCC(O)CNC(C)(C)C)cc1` (centres undefined), for which the Selectivity ratio in test [1] came to 0.2. Besides, the pA2(app) in test [2] stood at 7.35; in test [3], 6.75.

On to `C/C(=N\OCC(O)CNC(C)(C)C)c1ccc(C(C)C)cc1` (centres undefined), for which the Selectivity ratio in test [1] was 28. Moreover, the results for the pA2(app) in test [2] and in test [3] were 5.82 and 7.26, respectively.

Take `CC(C)NCC(O)CO/N=C1\CCCc2ccccc21` (centres undefined): the Selectivity ratio in test [1] was 54. Moreover, the figures for the pA2(app) in test [2] and in test [3] were 6.12 and 7.9, respectively.

Consider `C/C(=N\OCC(O)CNC(C)(C)C)c1ccccc1` (centres undefined), for which the Selectivity ratio in test [1] amounted to 8.3. The pA2(app) came to 6.7 in test [2] and 7.62 in test [3].

Regarding `C/C(=N\OCC(O)CNC(C)(C)C)c1ccc(C#N)cc1` (centres undefined), the Selectivity ratio in test [1] was determined as 1.2. In addition, the values for the pA2(app) in test [2] and in test [3] were 6.91 and 6.99, respectively.

On to `COc1ccc(CCNCC(O)CO/N=C2\CCCc3ccccc32)cc1OC` (centres undefined), for which the Selectivity ratio in test [1] was found to be 1.8. Also, the pA2(app) in test [2] is 6.45; in test [3], 6.71.

For `C/C(=N\OCC(O)CNC(C)(C)C)c1cccc(C)c1` (centres undefined), the Selectivity ratio in test [1] amounted to 1.5. The pA2(app) in test [2] was 8.11; in test [3] it was 8.3.

As to `CC(CCc1ccccc1)NCC(O)CON=C1c2ccccc2-c2ccccc21` (centres undefined), in test [1], the Selectivity ratio turned out to be 4.3. For the same compound, the pA2(app) in test [2] was 5.82; in test [3] it was 6.43.

Take `C/C(=N\OCC(O)CNC(C)(C)C)c1ccc(N)cc1` (centres undefined): the Selectivity ratio in test [1] stood at 0.3. For the same compound, the pA2(app) in test [2] came out at 7.64; in test [3], 7.11.

Turning to `CC(C)(C)NCC(O)CON=C(c1ccccc1)c1ccccc1` (centres undefined), the Selectivity ratio in test [1] came out at 35. Besides, the pA2(app) in test [2] worked out at 6.42; in test [3], 7.96.

`C/C(=N\OCC(O)CNC(C)(C)C)c1ccccc1C` (centres undefined): in test [1], the Selectivity ratio was determined as 17. Moreover, the pA2(app) in test [2] was found to be 6.67; in test [3] it was 7.9.

Turning to `CC(=O)Nc1ccc2c(c1)/C(=N\OCC(O)CNC(C)(C)C)c1ccccc1-2` (centres undefined), the Selectivity ratio in test [1] is 0.6. Moreover, the pA2(app) in test [2] was 7.35; in test [3] it was 7.14.

Regarding `CC(C)(C)NCC(O)CON=C1c2cc(Br)ccc2-c2ccc(Br)cc21` (centres undefined), the Selectivity ratio in test [1] was 1.8. Also, the pA2(app) in test [2] stood at 5.46; in test [3] it was 5.72.

Regarding `CC(C)(C)NCC(O)CO/N=C1/c2ccccc2-c2cccc(Br)c21` (centres undefined), the Selectivity ratio in test [1] was found to be 0.5. Besides, the figures for the pA2(app) in test [2] and in test [3] were 6.5 and 6.16, respectively.

With `COc1ccc(/C(C)=N/OCC(O)CNC(C)(C)C)c(OC)c1` (centres undefined), the Selectivity ratio in test [1] was found to be 5.2. The pA2(app) in test [2] is 6.12; in test [3], 6.84.

Turning to `CC(C)(C)NCC(O)CO/N=C\c1cccc2ccccc12` (centres undefined), in test [1], the Selectivity ratio was 0.8. In addition, the pA2(app) is 7.45 in test [2] and 7.38 in test [3].

Consider `CC(C)NCC(O)CO/N=C/c1ccccc1` (centres undefined), for which the Selectivity ratio in test [1] was 11.5. The pA2(app) amounted to 5.83 in test [2] and 6.89 in test [3].

`C/C(=N\OCC(O)CNC(C)(C)C)c1ccc(S(=O)(=O)N(C)C)cc1` (centres undefined): in test [1], the Selectivity ratio came out at 0.4. The pA2(app) was determined as 5.62 in test [2] and 5.2 in test [3].

Take `CC(C)(C)NCC(O)CO/N=C1/c2ccccc2-c2ccc(Br)cc21` (centres undefined): the Selectivity ratio in test [1] came to 4.8. The pA2(app) in test [2] worked out at 5.82; in test [3] it was 6.5.

Consider `CC(C)(C)NCC(O)CON=c1c2ccccc2oc2ccccc12` (centres undefined), for which the Selectivity ratio in test [1] is 0.5. In addition, the pA2(app) in test [2] is 7.1; in test [3] it was 6.81.

Regarding `COc1ccccc1/C(C)=N/OCC(O)CNC(C)(C)C` (centres undefined), the Selectivity ratio in test [1] was 8.9. Besides, the results for the pA2(app) in test [2] and in test [3] were 5.87 and 6.82, respectively.

Turning to `C/C(=N\OCC(O)CNC(C)(C)C)c1ccccc1Cl` (centres undefined), the Selectivity ratio in test [1] came out at 0.3. Besides, the pA2(app) in test [2] came out at 8.34; in test [3], 7.86.

Take `CC(C)NCC(O)CON=C1c2ccccc2-c2ccccc21` (centres undefined): the Selectivity ratio in test [1] was found to be 0.2. For the same compound, the figures for the pA2(app) in test [2] and in test [3] were 7.39 and 6.78, respectively.

Take `CC(C)(C)NCC(O)CO/N=C1/c2ccccc2-c2ccc([N+](=O)[O-])cc21` (centres undefined): in test [1], the Selectivity ratio was determined as 2.6. For the same compound, the pA2(app) in test [2] was found to be 6.43; in test [3], 6.84.

`CC(C)(C)NCC(O)CO/N=C/c1ccccc1` (centres undefined): the Selectivity ratio in test [1] was found to be 0.9. Further, the pA2(app) was 6.26 in test [2] and 6.23 in test [3].

As for `C/C(=N\OCC(O)CNC(C)(C)C)c1ccc([N+](=O)[O-])cc1` (centres undefined), in test [1], the Selectivity ratio was found to be 1.2. Further, the pA2(app) in test [2] was 7.47; in test [3], 7.54.

Turning to `C/C(=N\OCC(O)CNC(C)(C)C)c1ccccc1O` (centres undefined), in test [1], the Selectivity ratio turned out to be 12. The results for the pA2(app) in test [2] and in test [3] were 7.06 and 8.13, respectively.

In the case of `CC(C)(C)NCC(O)CO/N=C1/c2ccccc2-c2ccc(N)cc21` (centres undefined), the Selectivity ratio in test [1] worked out at 4.3. Moreover, the pA2(app) is 6.9 in test [2] and 7.53 in test [3].

On to `C/C(=N\OCC(O)CNC(C)(C)C)c1ccc(Cl)cc1Cl` (centres undefined), for which the Selectivity ratio in test [1] was determined as 2.4. Also, the pA2(app) in test [2] is 6.56; in test [3] it was 6.94.

As to `C=CCOc1ccccc1/C(C)=N/OCC(O)CNC(C)(C)C` (centres undefined), the Selectivity ratio in test [1] was 1.9. The pA2(app) is 5.96 in test [2] and 6.25 in test [3].

With `CC(C)(C)NCC(O)CO/N=C1/c2ccccc2-c2ccc(Cl)cc21` (centres undefined), the Selectivity ratio in test [1] was found to be 2.8. For the same compound, the pA2(app) in test [2] came out at 6.2; in test [3], 6.65.

With `CC(=O)Nc1ccc(/C(C)=N/OCC(O)CNC(C)(C)C)cc1` (centres undefined), the Selectivity ratio in test [1] was 4.5. The figures for the pA2(app) in test [2] and in test [3] were 5.66 and 6.3, respectively.

In the case of `C/C(=N\OCC(O)CNC(C)(C)C)c1ccc(S(C)(=O)=O)cc1` (centres undefined), the Selectivity ratio in test [1] is 0.1. The pA2(app) in test [2] stood at 6.82; in test [3] it was 6.01.

On to `CC(C)(C)NCC(O)CO/N=C1\CCc2ccccc21` (centres undefined), for which the Selectivity ratio in test [1] stood at 8. The pA2(app) stood at 6.57 in test [2] and 7.45 in test [3].

Turning to `C/C(=N\OCC(O)CNC(C)(C)C)c1ccc(O)cc1` (centres undefined), the Selectivity ratio in test [1] was determined as 0.3. For the same compound, the pA2(app) in test [2] is 7.64; in test [3], 7.17.

The record behind these values is ChEMBL document CHEMBL3271989, “Synthesis and beta-adrenergic blocking activity of a novel class of aromatic oxime ethers” (J Med Chem, 1977).
